Source: patent publication US10564168B2, “Method for treating male infertility based on NOX5 protein levels in sperm” (priority 2013, dated 2020)

Tests used:
human spermatozoa [1] = assay: Swim-up procedure, sperm motility; type: cell-based; conditions: 100 μM H2O2, 10 min
From the text: (§1) Human semen samples were obtained from patient donors as a part of their clinical evaluation for fertility and reproductive health status. Portions of the samples not required for clinical analyses were de-identified and made available for the research protocols described. Under these conditions, the Institutional Review Board determined that the study is exempt from requirements for protocol approval and informed consent. Semen was collected by masturbation into sterile plastic containers and allowed to liquefy for at least 30 min before being processed. The samples were centrifuged (500 g, 15 min) to separate the seminal plasma from spermatozoa, and the pellet washed twice in phosphate-buffered normal saline pH 7 with 10 mM glucose (PBS-G). The spermatozoa were then counted in a hemocytometer chamber, resuspended in PBS-G at 10^9/ml, and used for superoxide assays. Sperm samples containing leukocytes detected by microscopic examination were excluded from the study. For selected experiments, motile spermatozoa were collected using the swim-up procedure (Vijayakumar et al. (1986) Arch. Androl. 17, 223-230; Parrish and Foote (1987) J. Androl. 8, 259-266). Briefly, the spermatozoa were sedimented by centrifugation (500 g, 15 min) and the tube was then incubated upright for 60 min at 37° C. Motile spermatozoa that progressed from the pellet into the supernatant (swim-up fraction) were collected by aspiration and counted.

c-Abl = assay: Phospho-c-Abl immunoblot and immunostaining of spermatozoa; type: cell-based, human; conditions: 100 μM H2O2, 10 min
Method: Spermatozoa resuspended in lysis buffer A (20 mM HEPES, pH 7.9; 350 mM NaCl; 0.5 mM EDTA; 0.5 mM EGTA; 1 mM MgCl2; 10% glycerol (v/v); 1% Nonidet P-40 (v/v); 10 mM NaF; 0.1 mM Na3VO4 [orthovanadate], 8 mM β-glycerophosphate; phosphatase inhibitor cocktail I and II [Sigma]; and protease inhibitor cocktail [Roche, Mannheim, Germany]) were sonicated 3 times for 5 sec each (20 watts). Lysates were cleared by centrifugation (10,000 g, 15 min). Aliquots containing 60-200 μg of protein were separated on 4-20% SDS polyacrylamide gradient gels and transferred to polyvinylidene difluoride (PVDF) membranes. […]
For immunohistological analyses, a drop of spermatozoa suspended in PBS-G was placed on a poly-L-lysine-coated glass slide, fixed in 4% (w/v) paraformaldehyde and permeabilized with 0.1% Triton X-100 (v/v) for 15 min at 4° C. […] Protein expression was visualized on a fluorescence microscope (Zeiss, Thornwood, N.Y.). […]

human spermatozoa [2] = assay: Live cell confocal imaging with fluo4-AM and DHE; type: cell-based; conditions: H2O2, 10 min
Method: Spermatozoa suspended in PBS-G were plated on poly-L-lysine-coated glass coverslips (2×10^5 cells/ml) in PBS-G and loaded with 6 μM fluo4-AM and 300 nM dihydroethidine (DHE) (Molecular Probes, Carlsbad, Calif.) 10 min before imaging. Ca2+ influx and superoxide production were recorded using a confocal microscope (LSM 510; Carl Zeiss MicroImaging, Inc., Thornwood, N.Y.) with a 63×/1.4 NA plan-apochromat objective. Fluo-4 and DHE fluorescence emissions were excited with dual laser at 488/543 nm attenuated to avoid photobleaching and saturation. Detection was through a 545 nm long-pass dichroic mirror and a band-pass filter at 500-530 for fluo-4 and LP560 for DHE.

human spermatozoa [3] = assay: Superoxide assay, luminol-based Diogenes chemiluminescence, whole spermatozoa; type: cell-based
From the text: as §1
(§2) Superoxide generation was measured using a luminol-based chemiluminescence assay (Diogenes reagent, National Diagnostics, Atlanta, Ga.). […] Spermatozoa were suspended at 10^9/ml in PBS-G. A 100 μl aliquot of the Diogenes reagent was mixed with 2×10^7 spermatozoa and incubated at 37° C. for 2-4 minutes. Superoxide generation was measured at baseline and after stimulation with ionomycin (1 μM), phorbol myristate acetate (PMA, 1 μg/ml), or H2O2 (100 μM and other concentrations as indicated). Chemiluminescence was measured every 30-60 sec for up to 10-15 min using a Clarity™ BioTek luminometer and an integration time of 5 sec.
Spermatozoa were pre-incubated for 5 min prior to the superoxide assay with 400 U/ml superoxide dismutase (SOD), 10 μM diphenylene iodonium (DPI), or 100 μM 1,2-Bis (2-aminophenoxy) ethane-N,N,N′,N′-tetraacetic acid (BAPTA). […] In some experiments, cells were pre-exposed to the NOX inhibitor 2-(2-chlorophenyl)-4-methyl-5-(pyridin-2-ylmethyl)-1H-pyrazolo[4,3-c]pyridine-3,6(2H,5H)-dione (GKT136901, 0.5 μM and other concentrations as indicated) for 10 min before exposure to either H2O2 or PMA.

K562/NOX5 cells = assay: Superoxide production by K562/NOX5 cells; type: cell-based, human; conditions: 1 mM ZnCl2, K562/NOX5 cells
Method: as §2
Human leukemia cells stably transfected with an empty vector (K562 cells) or a vector encoding for NOX5 (K562/NOX5) were grown in RPMI medium supplemented with 10% (v/v) fetal bovine serum, plus 100 U/ml penicillin and 100 μg/ml streptomycin and the appropriate selection antibiotic. Cells in the logarithmic phase of growth were transfected with a mix of HV1 siRNA (Sigma) or with scrambled siRNA (Sigma) using the Neon system (Invitrogen, Carlsbad, Calif.) according to the manufacturer's recommendations. […]

Compound	effect on number of sperm in the swim-up fraction (human spermatozoa [1])	phosphorylation of c-Abl (c-Abl)	cytosolic Ca2+ levels and superoxide fluorescence (human spermatozoa [2])	dose dependence of induction of superoxide generation (human spermatozoa [3]; 1 to 500 μM H2O2)	H2O2-stimulated superoxide production by hypermotile spermatozoa of the upper fraction after spontaneous swim-up (human spermatozoa [3]; compared with pre-swim-up cells)	onset of superoxide burst after peroxide addition (human spermatozoa [3]; human spermatozoa)	time to maximal superoxide activity levels (human spermatozoa [3]; human spermatozoa, varying among donors)	induction of superoxide production by spermatozoa (human spermatozoa [3]; ionomycin 1 μM, PMA 1 μg/ml or H2O2 100 μM, 10 min)	decrease of superoxide production stimulated by ionomycin, PMA, or H2O2 (K562/NOX5 cells)	sensitivity of superoxide production induced by H2O2, PMA, or ionomycin (human spermatozoa [3]; 1 mM ZnCl2, 5 min pre-incubation, human spermatozoa)
OO [H2O2]	increase in the number of sperm in the swim-up fraction	induced the phosphorylation of c-Abl on tyrosine 245	increases in cytosolic Ca2+ levels	dose-dependent	did not produce superoxide	1 to 2 min	5 to 10 min	induced a marked burst in superoxide production	–	–
[Cl-].[Cl-].[Zn+2] [ZnCl2]	–	–	–	–	–	–	–	–	50-70%	Zn2+-sensitive
